According to paper PMC6429214, “Design, Synthesis and Biological Evaluation of Isoxazole-Based CK1 Inhibitors Modified with Chiral Pyrrolidine Scaffolds” (Molecules, 2019):

How the values were obtained:
Test in all cases: 33PanQinase panel
Type in all cases: biochemical
FGF-R1 = molecular target: T1, FGF-R1 (Homo sapiens, UniProt P11362); details: FGF-R1, 1 µM; read-out: Residual Activity (%)
T1 construct: purchased ProQinase
How it was run: (§1)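 Percent residual kinase activity versus DMSO control, from a radiometric 33PanQinase assay at 1 µM compound.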

EPHA7 = molecular target: T2, EPHA7 (Homo sapiens, UniProt Q15375); details: EPHA7, 1 µM; read-out: Residual Activity (%)
T2 construct: purchased ProQinase
How it was run: as §1

PKC-delta = molecular target: T3, PKC-delta (Homo sapiens, UniProt Q05655); details: read-out: Residual Activity (%)
T3 construct: purchased ProQinase
How it was run: as §1

ALK (GST-HIS-tag) = molecular target: T4, ALK (GST-HIS-tag) (Homo sapiens, UniProt Q9UM73); details: read-out: Residual Activity (%)
T4 construct: purchased ProQinase
How it was run: as §1

JNK3 = molecular target: T5, JNK3 (Homo sapiens, UniProt P53779); details: JNK3, 1 µM; read-out: Residual Activity (%)
T5 construct: purchased ProQinase
How it was run: as §1

PRKD2 = molecular target: T6, PRKD2 (Homo sapiens, UniProt Q9BZL6); details: PRKD2, 1 µM; read-out: Residual Activity (%)
T6 construct: purchased ProQinase
T6 sequence (Q9BZL6 whole entry): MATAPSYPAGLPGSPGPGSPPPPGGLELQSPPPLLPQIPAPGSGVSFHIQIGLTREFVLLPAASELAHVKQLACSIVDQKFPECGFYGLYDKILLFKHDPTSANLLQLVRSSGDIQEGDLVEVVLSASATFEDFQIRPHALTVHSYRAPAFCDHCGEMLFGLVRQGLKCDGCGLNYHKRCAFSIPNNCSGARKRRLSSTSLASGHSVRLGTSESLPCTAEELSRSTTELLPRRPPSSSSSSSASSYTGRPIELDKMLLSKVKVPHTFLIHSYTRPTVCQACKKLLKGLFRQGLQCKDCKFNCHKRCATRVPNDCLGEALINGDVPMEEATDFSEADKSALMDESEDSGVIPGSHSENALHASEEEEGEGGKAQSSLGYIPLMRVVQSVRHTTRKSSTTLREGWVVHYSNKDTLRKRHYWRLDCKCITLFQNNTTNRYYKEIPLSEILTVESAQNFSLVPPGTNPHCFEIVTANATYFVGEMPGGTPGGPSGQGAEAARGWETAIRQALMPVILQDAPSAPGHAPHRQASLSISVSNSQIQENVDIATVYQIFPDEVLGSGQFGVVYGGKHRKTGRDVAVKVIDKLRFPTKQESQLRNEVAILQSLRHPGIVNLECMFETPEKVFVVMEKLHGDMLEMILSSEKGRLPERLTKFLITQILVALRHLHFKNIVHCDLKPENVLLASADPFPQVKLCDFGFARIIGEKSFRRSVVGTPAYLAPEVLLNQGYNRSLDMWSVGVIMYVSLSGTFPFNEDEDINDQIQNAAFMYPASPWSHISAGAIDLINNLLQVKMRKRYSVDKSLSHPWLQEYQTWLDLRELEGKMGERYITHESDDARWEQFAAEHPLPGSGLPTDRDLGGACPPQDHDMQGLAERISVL
How it was run: as §1

ERK2 = molecular target: T7, ERK2 (Homo sapiens, UniProt P28482); details: ERK2, 1 µM; read-out: Residual Activity (%)
T7 construct: purchased ProQinase
How it was run: as §1

NEK1 = molecular target: T8, NEK1 (Homo sapiens, UniProt Q96PY6); details: NEK1, 1 µM; read-out: Residual Activity (%)
T8 construct: purchased ProQinase
T8 sequence (Q96PY6 whole entry): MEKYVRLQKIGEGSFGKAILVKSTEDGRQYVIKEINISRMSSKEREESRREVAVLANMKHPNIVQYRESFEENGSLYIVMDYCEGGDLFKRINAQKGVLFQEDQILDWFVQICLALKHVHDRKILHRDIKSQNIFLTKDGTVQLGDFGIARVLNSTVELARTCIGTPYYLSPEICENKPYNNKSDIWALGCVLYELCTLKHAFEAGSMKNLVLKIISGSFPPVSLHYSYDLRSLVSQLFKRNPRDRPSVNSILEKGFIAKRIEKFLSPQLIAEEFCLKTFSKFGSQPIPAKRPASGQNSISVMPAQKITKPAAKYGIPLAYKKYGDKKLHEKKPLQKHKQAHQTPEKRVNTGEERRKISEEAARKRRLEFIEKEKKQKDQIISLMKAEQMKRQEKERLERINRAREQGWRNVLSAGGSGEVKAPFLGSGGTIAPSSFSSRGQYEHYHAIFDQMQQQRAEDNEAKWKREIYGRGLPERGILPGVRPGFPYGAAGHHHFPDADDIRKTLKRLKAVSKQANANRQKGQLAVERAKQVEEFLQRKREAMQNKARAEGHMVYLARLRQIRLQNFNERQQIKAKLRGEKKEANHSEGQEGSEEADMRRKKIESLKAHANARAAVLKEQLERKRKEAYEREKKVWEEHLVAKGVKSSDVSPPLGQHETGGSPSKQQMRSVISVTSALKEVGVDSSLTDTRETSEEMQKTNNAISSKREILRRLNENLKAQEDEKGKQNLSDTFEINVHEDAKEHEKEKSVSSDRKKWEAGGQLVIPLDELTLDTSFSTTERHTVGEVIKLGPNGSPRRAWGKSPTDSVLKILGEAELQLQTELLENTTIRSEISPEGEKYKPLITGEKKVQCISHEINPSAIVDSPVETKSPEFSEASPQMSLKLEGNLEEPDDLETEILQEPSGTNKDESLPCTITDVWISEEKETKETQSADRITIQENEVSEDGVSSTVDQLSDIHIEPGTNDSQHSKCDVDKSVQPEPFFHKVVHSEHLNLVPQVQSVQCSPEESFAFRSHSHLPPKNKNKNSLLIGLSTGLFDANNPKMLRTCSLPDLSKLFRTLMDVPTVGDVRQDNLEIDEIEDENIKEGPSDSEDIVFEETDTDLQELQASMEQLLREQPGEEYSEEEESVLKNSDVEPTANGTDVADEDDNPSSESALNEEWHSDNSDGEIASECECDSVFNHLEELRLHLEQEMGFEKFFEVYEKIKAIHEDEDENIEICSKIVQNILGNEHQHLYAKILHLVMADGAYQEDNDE
How it was run: as §1

PKA = molecular target: T9, PKA (Homo sapiens, UniProt P17612); details: read-out: Residual Activity (%)
T9 construct: purchased ProQinase
How it was run: as §1

TXK = molecular target: T10, TXK (Homo sapiens, UniProt P42681); details: read-out: Residual Activity (%)
T10 construct: purchased ProQinase
T10 sequence (P42681 whole entry): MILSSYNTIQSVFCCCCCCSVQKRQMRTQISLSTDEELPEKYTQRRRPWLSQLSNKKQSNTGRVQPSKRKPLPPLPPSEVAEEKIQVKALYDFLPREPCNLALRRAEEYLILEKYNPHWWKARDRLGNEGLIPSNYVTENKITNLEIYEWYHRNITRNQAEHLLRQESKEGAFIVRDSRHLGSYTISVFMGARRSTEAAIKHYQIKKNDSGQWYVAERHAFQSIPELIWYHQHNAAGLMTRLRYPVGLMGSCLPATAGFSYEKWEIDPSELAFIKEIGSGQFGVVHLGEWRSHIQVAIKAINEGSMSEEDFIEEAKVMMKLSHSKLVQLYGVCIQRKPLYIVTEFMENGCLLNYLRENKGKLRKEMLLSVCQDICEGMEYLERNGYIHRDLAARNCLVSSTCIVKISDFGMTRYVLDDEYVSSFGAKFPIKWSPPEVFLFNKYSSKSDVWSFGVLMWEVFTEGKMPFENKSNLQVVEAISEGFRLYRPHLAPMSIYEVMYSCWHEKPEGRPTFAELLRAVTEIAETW
How it was run: as §1

ACV-R2B = molecular target: T11, ACV-R2B (Homo sapiens, UniProt Q13705); details: read-out: Residual Activity (%)
T11 construct: purchased ProQinase
How it was run: as §1

LIMK2 = molecular target: T12, LIMK2 (Homo sapiens, UniProt P53671); details: LIMK2, 1 µM; read-out: Residual Activity (%)
T12 construct: purchased ProQinase
How it was run: as §1

WEE1 = molecular target: T13, WEE1 (Homo sapiens, UniProt P30291); details: WEE1, 1 µM; read-out: Residual Activity (%)
T13 construct: purchased ProQinase
How it was run: as §1

EEF2K = molecular target: T14, EEF2K (Homo sapiens, UniProt O00418); details: read-out: Residual Activity (%)
T14 construct: purchased ProQinase
How it was run: as §1

JNK1 = molecular target: T15, JNK1 (Homo sapiens, UniProt P45983); details: JNK1, 1 µM; read-out: Residual Activity (%)
T15 construct: purchased ProQinase
How it was run: as §1

MAPKAPK2 = molecular target: T16, MAPKAPK2 (Homo sapiens, UniProt P49137); details: MAPKAPK2, 1 µM; read-out: Residual Activity (%)
T16 construct: purchased ProQinase
How it was run: as §1

MST3 = molecular target: T17, MST3 (Homo sapiens, UniProt Q9Y6E0); details: MST3, 1 µM; read-out: Residual Activity (%)
T17 construct: purchased ProQinase
T17 sequence (Q9Y6E0 whole entry): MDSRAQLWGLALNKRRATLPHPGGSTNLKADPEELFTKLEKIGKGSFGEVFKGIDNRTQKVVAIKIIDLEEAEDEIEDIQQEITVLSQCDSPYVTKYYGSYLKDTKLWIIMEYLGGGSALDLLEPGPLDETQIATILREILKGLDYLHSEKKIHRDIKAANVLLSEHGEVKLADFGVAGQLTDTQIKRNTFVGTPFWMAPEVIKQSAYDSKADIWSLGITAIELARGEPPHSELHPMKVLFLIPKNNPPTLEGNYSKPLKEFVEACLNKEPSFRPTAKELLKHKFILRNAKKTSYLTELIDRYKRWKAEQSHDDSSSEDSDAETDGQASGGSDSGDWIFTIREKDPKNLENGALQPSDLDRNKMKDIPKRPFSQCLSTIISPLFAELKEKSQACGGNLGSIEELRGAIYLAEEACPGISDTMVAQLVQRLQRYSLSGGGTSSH
How it was run: as §1

FRK = molecular target: T18, FRK (Homo sapiens, UniProt P42685); details: read-out: Residual Activity (%)
T18 construct: purchased ProQinase
How it was run: as §1

PKC-eta = molecular target: T19, PKC-eta (Homo sapiens, UniProt P24723); details: read-out: Residual Activity (%)
T19 construct: purchased ProQinase
How it was run: as §1

BMPR1A = molecular target: T20, BMPR1A (Homo sapiens, UniProt P36894); details: read-out: Residual Activity (%)
T20 construct: purchased ProQinase
How it was run: as §1

EPHA2 = molecular target: T21, EPHA2 (Homo sapiens, UniProt P29317); details: EPHA2, 1 µM; read-out: Residual Activity (%)
T21 construct: purchased ProQinase
How it was run: as §1

GRK2 = molecular target: T22, GRK2 (Homo sapiens, UniProt P25098); details: GRK2, 1 µM; read-out: Residual Activity (%)
T22 construct: purchased ProQinase
How it was run: as §1

MST2 = molecular target: T23, MST2 (Homo sapiens, UniProt Q13188); details: MST2, 1 µM; read-out: Residual Activity (%)
T23 construct: purchased ProQinase
How it was run: as §1

ROS = molecular target: T24, ROS (Homo sapiens, UniProt P08922); details: read-out: Residual Activity (%)
T24 construct: purchased ProQinase
How it was run: as §1

p38-delta = molecular target: T25, p38-delta (Homo sapiens, UniProt O15264); details: read-out: Residual Activity (%)
T25 construct: purchased ProQinase
How it was run: as §1

HIPK3 = molecular target: T26, HIPK3 (Homo sapiens, UniProt Q9H422); details: HIPK3, 1 µM; read-out: Residual Activity (%)
T26 construct: purchased ProQinase
How it was run: as §1

LRRK2 = molecular target: T27, LRRK2 (Homo sapiens, UniProt Q5S007); details: LRRK2, 1 µM; read-out: Residual Activity (%)
T27 construct: purchased ProQinase
How it was run: as §1

ABL1 = molecular target: T28, ABL1 (Homo sapiens, UniProt P00519); details: ABL1, 1 µM; read-out: Residual Activity (%)
T28 construct: purchased ProQinase
T28 sequence (P00519 whole entry): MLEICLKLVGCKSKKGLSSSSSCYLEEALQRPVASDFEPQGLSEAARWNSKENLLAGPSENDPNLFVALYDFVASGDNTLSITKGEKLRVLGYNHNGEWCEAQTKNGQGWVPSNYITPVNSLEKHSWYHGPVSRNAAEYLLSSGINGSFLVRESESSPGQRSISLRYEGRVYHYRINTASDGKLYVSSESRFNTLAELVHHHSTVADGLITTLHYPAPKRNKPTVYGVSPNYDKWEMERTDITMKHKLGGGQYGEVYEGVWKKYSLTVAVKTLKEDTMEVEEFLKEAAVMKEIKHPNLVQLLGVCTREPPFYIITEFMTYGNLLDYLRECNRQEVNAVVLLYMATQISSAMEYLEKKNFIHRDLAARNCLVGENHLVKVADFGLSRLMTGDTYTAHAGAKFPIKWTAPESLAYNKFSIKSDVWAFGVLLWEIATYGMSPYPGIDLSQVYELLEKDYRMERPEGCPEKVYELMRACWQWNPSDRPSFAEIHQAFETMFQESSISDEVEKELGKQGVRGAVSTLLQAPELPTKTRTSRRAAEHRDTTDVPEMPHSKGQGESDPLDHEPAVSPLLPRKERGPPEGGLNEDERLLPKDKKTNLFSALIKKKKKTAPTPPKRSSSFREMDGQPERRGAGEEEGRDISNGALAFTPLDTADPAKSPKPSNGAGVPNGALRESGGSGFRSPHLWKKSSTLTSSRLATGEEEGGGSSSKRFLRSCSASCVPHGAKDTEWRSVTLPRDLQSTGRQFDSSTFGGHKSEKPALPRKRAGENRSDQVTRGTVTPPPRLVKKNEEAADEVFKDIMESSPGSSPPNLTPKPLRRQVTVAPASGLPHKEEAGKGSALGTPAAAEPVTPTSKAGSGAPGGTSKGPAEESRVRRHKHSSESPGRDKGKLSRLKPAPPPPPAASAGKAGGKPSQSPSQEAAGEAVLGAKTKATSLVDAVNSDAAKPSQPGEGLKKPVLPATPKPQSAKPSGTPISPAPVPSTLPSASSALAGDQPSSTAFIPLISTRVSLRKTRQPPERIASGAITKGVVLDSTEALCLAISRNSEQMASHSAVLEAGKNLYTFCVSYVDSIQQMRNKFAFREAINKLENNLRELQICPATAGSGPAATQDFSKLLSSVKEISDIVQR
How it was run: as §1

CK1-gamma1 = molecular target: T29, CK1-gamma1 (Homo sapiens, UniProt Q9HCP0); details: CK1-gamma1, 1 µM; read-out: Residual Activity (%)
T29 construct: purchased ProQinase
How it was run: as §1

MAP3K7/MAP3K7IP1 = molecular target: T30, MAP3K7/MAP3K7IP1 (Homo sapiens, UniProt O43318); details: MAP3K7/MAP3K7IP1, 1 µM; read-out: Residual Activity (%)
T30 construct: purchased ProQinase
How it was run: as §1

T1 sequence (P11362 22-822): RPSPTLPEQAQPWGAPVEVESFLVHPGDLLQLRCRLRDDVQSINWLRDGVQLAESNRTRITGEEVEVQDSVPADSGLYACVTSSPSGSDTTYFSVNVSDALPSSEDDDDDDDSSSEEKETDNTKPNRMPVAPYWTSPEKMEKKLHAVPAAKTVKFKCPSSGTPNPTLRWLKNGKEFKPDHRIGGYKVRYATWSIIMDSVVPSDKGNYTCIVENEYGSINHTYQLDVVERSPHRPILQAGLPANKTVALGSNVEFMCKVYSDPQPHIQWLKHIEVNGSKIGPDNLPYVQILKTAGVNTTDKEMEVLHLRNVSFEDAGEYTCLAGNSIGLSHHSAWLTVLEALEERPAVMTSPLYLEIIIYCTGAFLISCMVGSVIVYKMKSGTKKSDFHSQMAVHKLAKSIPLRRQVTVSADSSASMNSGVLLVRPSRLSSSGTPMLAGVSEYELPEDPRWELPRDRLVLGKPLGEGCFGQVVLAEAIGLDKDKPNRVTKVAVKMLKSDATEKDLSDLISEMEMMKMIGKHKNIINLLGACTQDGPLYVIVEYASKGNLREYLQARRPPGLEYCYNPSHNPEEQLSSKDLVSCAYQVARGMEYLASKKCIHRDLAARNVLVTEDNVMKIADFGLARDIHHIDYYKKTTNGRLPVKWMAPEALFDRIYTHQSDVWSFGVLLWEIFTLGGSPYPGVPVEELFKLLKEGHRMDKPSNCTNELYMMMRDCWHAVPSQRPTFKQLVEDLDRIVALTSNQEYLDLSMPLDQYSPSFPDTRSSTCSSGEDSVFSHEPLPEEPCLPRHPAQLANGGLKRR

Question: What does the source list for COc1ccc(-c2cc(C(=O)Nc3cc(-c4c(-c5ccc(F)cc5)noc4C(C)C)ccn3)n(CC3NCC(O)C3O)c2)cc1 (stereo not drawn) [29d]?
Answer: remaining activity at 1 µM (FGF-R1): 138%; remaining activity at 1 µM (EPHA7): 100%; remaining activity at 1 µM (PKC-delta): 100%; remaining activity at 1 µM (ALK (GST-HIS-tag)): 105%; remaining activity at 1 µM (JNK3): 15%; remaining activity at 1 µM (PRKD2): 110%; remaining activity at 1 µM (ERK2): 104%; remaining activity at 1 µM (NEK1): 101%; remaining activity at 1 µM (PKA): 96%; remaining activity at 1 µM (TXK): 119%; remaining activity at 1 µM (ACV-R2B): 127%; remaining activity at 1 µM (LIMK2): 98%; remaining activity at 1 µM (WEE1): 95%; remaining activity at 1 µM (EEF2K): 99%; remaining activity at 1 µM (JNK1): 63%; remaining activity at 1 µM (MAPKAPK2): 96%; remaining activity at 1 µM (MST3): 117%; remaining activity at 1 µM (FRK): 94%; remaining activity at 1 µM (PKC-eta): 113%; remaining activity at 1 µM (BMPR1A): 96%; remaining activity at 1 µM (EPHA2): 103%; remaining activity at 1 µM (GRK2): 87%; remaining activity at 1 µM (MST2): 85%; remaining activity at 1 µM (ROS): 88%; remaining activity at 1 µM (p38-delta): 99%; remaining activity at 1 µM (HIPK3): 109%; remaining activity at 1 µM (LRRK2): 100%; remaining activity at 1 µM (ABL1): 95%; remaining activity at 1 µM (CK1-gamma1): 88%; remaining activity at 1 µM (MAP3K7/MAP3K7IP1): 95%
